US20060134017A1, “Oral treatment compositions containing an anti-adhesion agent, antibacterial agent and incompatible compound” (Colgate-Palmolive Company, priority 2004, published 2006)

B1: Papain: cysteine protease enzyme obtained from the fruit and leaves of Carica papaya (EDC papain) (protein, UniProt P00784 134-345, looked up)
Papain: IPEYVDWRQKGAVTPVKNQGSCGSCWAFSAVVTIEGIIKIRTGNLNEYSEQELLDCDRRSYGCNGGYPWSALQLVAQYGIHYRNTYPYEGVQRYCRSREKGPYAAKTDGVRQVQPYNEGALLYSIANQPVSVVLEAAGKDFQLYRGGIFVGPCGNKVDHAVAAVGYGPNYILIKNSWGTGWGENGYIRIKRGTGNSYGVCGLYTSSFYPVKN

Assays:
[1] = tested on: oral bacteria culture on saliva-coated hydropxyapatite (SHAP) disks; assay: Artificial Mouth anti-attachment efficacy model (chemostat flow cell, SHAP disks); format: cell-based; details: for anti-adhesion efficacy, ranking of in vitro results: toothpaste formulas; for anti-adhesion efficacy relative to matching negative control paste (statistical analysis): toothpaste with 0.226 weight percent protease, ABS610 after 24 hours
From the text: To test the efficacy of the actives in toothpaste formulas, the Artificial Mouth model was utilized. This is generally described in Herles, S., S. Olsen, et al. (1994). “Chemostat flow cell system: an in vitro model for the evaluation of antiplaque agents.” J Dent Res 73(11): 1748-55. The Artificial Mouth model is a flow system that simulates the human mouth. Saliva-coated hydropxyapatite (SHAP) disks served as the artificial teeth, and a bacteria culture consisting of the main oral bacteria in humans flowed through the system at a speed consistent with the in vivo human saliva. Eight disks for each treatment were then placed in the chemostat flow cell and oral bacteria culture was allowed to flow through the disks overnight (20-24 hours) to see if actives coated on the disk surfaces would prevent bio-film formation. After 24 hours the SHAP disks were removed and amount of bacteria quantified. The ABS610 of the solutions were then measured and analyzed. […] From this value, the percentage anti-adhesion effectiveness of the pastes is evaluated relative to a matching negative control. Two concentrations of protease were tested for each of the three protease; namely. 0.226 weight percent and 0.065 weight percent.

[2] = generic protease activity assay (Panvera); format: biochemical; details: neat powder, 40° C., neutral pH; +/-3
Method: The activity of proteases was evaluated using generic protease assay from Panvera at 40° C. and neutral pH. The activity was assessed relative to papain on an equal weight basis of neat powder samples. Krillase protease enzymes are a mixture of eight different proteases; thus, the activity of any one of the eight was not discernable by the present assay. The assay aided in determining dose for the dose response studies. In clinical formulations, enzymes were dosed based on an equal weight basis. Table 2 gives the relative activity of neat enzymes.

| Molecule | anti-adhesion efficacy, ranking of in vitro results [1] | anti-adhesion efficacy relative to matching negative control paste (statistical analysis) [1] | Activity by protease assay [2] [CPU/g] |
| --- | --- | --- | --- |
| Ficin | better then the papain | showed efficacy | 23 |
| B1 | better then the matching placebo paste | showed efficacy | 25 |
